The source of these data is PMC5840332, “Disease-associated missense mutations in GluN2B subunit alter NMDA receptor ligand binding and ion channel properties” (Nature Communications, 2018).

Data set [1] can be described thus: Memantine pKa and ionisation. Format: physicochemical.
A further data set deals with GluN1–GluN2B^V618G (Homo sapiens, UniProt Q05586+Q13224, V618G). Put plainly: Memantine block of glutamate currents in HEK293 cells (concentration–inhibition, I–V, trapping model). The arrangement: expressed in transfected cells; host or cells: HEK293. The format is cell-based. Here is the method: (§1) To examine voltage-dependent block of NMDARs, HEK293 cells were voltage clamped at −30 mV, and currents recorded following a voltage (10 mV) step protocol from −90 to +90 mV. […] The current induced by the agonists was determined by subtracting the leak current before plotting the I–V relationship.
(§2) To explain the block of the NMDAR we adopted a trapping based model (Table 2) whereby the antagonist can remain bound to its site (e.g. in the channel) after agonist dissociation.
(§3) The values of k+bo(0 mV) and k+bi(0 mV) were fixed at 5 × 10^7 M^-1 s^-1. […] This allowed k−bo and δMg to be estimated independently. For the permeation model (see below), the same principle was used to define the ion binding rate (k+bi) from the inside of the channel.

In another data set the target is GluN1–GluN2B^WT (Homo sapiens, UniProt Q05586+Q13224). The description is as above. The format is cell-based. The arrangement: expressed in transfected cells; host or cells: HEK293. The following applies: for δMem, fraction of membrane potential sensed by memantine: trapping block model fit. Here is the method:
as §1, §2, §3

A further data set has as its target GluN1–GluN2B^N615I (Homo sapiens, UniProt Q05586+Q13224, N615I). The description is as above. Format: cell-based. The arrangement: expressed in transfected cells; host or cells: HEK293. Here is the method: as §1, §2, §3
Data set [2] relates to hippocampal neurons expressing GluN2B^N615I. Put plainly: Evoked NMDAR-mediated EPSCs in transfected hippocampal neurons. The format is cell-based, rat. Conditions: 30 μM memantine, 0 Mg^2+. The source says: (§4) Dissected hippocampi were dissociated from E18 Sprague Dawley rat embryos using procedures and protocols that have been approved by the UK Home Office. They were dissociated into single cells using 0.1% w/v trypsin and serially triturated with flame-polished Pasteur pipettes. […] Neurons were transfected after 10 days in vitro (DIV) with either cDNAs for the GluN2B WT or mutants together with DsRed using Effectene (Qiagen) and recorded at 13–15 DIV.
(§5) Cells were voltage clamped at −60 mV.
(§6) NMDAR-mediated EPSCs were evoked by direct stimulation of single neighbouring neurons using a loose cell-attached patch electrode filled with Krebs and containing a bipolar stimulating electrode. […] For the pharmacological characterisation of NMDAR-mediated EPSCs, the selective antagonists ifenprodil (+)-hemitartrate (Santacruz biotechnology) and TCN213 (Tocris) were used.
(§7) EPSCs were analysed offline using WinWCP (Strathclyde Electrophysiology Software, UK). Peak EPSC amplitude, the area of the EPSC (charge transfer) and EPSC decays were measured. The decay time constants (τ) were determined by fitting the EPSC decays with a double exponential function. The weighted time constant (τw) was calculated using the following equation, where A indicates the relative area of each time constant.3 τw=((A1.τ1)+(A2.τ2))∕A1+A2.

Data set [3] concerns hippocampal neurons expressing GluN2B^WT. The description is as above. Conditions: 30 μM memantine, 0 Mg^2+. Format: cell-based, rat.
Source text: as §4, §5, §6, §7

Data set [4] relates to hippocampal neurons expressing GluN2B^V618G. The description is as above. The format is cell-based, rat. Conditions: 300 μM memantine, 0 Mg^2+.
Source text: as §4, §5, §6, §7

Where [5] appears, read: after removal of 10 μM glutamate + 10 μM glycine, range of memantine concentrations.

Sequence of GluN1–GluN2B^WT (Q13224 27-1484, other chains not shown): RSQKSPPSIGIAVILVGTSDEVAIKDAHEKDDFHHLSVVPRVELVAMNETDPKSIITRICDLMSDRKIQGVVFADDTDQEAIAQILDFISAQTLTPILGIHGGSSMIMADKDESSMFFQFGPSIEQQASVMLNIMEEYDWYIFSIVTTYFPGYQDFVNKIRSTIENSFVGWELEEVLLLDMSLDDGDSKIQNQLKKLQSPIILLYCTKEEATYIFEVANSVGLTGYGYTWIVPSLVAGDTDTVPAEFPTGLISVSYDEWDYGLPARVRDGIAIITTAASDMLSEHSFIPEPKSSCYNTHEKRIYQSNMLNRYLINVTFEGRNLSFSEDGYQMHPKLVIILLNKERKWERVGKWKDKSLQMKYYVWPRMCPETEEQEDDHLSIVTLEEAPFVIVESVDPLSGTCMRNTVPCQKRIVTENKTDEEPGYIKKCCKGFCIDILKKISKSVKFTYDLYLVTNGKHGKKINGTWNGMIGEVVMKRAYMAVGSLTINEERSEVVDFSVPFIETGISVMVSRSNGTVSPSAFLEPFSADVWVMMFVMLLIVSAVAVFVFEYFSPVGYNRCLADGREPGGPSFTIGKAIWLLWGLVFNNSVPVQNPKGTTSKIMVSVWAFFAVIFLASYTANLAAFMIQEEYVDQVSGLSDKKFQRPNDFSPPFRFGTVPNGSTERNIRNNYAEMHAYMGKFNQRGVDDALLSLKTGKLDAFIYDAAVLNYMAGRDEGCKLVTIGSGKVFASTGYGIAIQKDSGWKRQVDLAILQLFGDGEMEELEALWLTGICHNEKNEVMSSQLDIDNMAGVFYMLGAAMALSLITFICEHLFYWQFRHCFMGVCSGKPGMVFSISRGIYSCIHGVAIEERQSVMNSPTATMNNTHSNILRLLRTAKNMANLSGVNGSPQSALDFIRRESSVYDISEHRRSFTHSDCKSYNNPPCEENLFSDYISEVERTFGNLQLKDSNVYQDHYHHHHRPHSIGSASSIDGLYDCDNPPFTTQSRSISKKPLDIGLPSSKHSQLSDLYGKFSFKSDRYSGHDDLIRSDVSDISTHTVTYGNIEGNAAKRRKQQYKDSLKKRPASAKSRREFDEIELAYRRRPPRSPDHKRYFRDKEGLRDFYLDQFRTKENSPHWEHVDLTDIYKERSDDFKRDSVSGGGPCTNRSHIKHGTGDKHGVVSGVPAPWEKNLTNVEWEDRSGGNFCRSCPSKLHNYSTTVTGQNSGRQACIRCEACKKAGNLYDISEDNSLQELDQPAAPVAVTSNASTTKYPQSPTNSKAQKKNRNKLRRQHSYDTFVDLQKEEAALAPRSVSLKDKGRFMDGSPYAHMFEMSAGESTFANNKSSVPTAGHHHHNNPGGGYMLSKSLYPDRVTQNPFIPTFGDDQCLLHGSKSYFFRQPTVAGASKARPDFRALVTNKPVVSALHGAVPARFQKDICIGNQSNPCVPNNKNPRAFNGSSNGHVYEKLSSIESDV
Sequence of GluN1–GluN2B^N615I (Q13224 27-1484 N615I, other chains not shown): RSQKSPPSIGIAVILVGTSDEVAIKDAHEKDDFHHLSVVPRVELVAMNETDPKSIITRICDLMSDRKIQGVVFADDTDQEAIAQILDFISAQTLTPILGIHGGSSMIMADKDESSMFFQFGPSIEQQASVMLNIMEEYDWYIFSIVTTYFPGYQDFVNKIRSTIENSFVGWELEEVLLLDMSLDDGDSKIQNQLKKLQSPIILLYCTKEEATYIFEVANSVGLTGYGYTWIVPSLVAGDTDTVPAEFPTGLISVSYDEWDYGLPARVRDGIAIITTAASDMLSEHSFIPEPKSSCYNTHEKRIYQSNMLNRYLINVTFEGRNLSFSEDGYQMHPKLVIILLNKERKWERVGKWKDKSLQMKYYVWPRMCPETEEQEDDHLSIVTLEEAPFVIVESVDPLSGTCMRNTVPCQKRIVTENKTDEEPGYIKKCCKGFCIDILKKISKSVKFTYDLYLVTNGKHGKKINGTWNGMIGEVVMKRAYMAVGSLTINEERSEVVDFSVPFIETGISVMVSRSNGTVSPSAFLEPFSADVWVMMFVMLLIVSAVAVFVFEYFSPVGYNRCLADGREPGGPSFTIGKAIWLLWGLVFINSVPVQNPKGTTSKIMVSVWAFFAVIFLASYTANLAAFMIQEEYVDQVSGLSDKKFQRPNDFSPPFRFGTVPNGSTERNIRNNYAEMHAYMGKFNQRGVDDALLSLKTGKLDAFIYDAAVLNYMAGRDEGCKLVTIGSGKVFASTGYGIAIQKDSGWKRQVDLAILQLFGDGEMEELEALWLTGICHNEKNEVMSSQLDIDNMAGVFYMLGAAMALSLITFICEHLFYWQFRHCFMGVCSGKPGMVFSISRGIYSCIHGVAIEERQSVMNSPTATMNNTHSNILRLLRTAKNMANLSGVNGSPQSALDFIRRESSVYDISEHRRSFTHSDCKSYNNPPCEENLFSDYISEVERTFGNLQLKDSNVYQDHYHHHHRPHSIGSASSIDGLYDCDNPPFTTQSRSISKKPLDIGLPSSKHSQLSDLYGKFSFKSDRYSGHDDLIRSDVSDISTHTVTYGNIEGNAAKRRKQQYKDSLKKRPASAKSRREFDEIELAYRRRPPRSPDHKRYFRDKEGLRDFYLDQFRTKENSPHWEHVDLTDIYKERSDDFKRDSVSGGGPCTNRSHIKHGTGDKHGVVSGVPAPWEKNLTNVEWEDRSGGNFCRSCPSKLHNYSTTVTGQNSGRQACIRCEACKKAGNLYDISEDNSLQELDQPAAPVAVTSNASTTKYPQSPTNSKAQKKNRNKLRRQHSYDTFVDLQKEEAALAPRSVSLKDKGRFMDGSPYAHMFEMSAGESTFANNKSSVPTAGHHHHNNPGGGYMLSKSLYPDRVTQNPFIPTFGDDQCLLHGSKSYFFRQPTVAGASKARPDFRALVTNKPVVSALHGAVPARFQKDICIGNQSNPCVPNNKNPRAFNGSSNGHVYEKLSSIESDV
Sequence of GluN1–GluN2B^V618G (Q13224 27-1484 V618G, other chains not shown): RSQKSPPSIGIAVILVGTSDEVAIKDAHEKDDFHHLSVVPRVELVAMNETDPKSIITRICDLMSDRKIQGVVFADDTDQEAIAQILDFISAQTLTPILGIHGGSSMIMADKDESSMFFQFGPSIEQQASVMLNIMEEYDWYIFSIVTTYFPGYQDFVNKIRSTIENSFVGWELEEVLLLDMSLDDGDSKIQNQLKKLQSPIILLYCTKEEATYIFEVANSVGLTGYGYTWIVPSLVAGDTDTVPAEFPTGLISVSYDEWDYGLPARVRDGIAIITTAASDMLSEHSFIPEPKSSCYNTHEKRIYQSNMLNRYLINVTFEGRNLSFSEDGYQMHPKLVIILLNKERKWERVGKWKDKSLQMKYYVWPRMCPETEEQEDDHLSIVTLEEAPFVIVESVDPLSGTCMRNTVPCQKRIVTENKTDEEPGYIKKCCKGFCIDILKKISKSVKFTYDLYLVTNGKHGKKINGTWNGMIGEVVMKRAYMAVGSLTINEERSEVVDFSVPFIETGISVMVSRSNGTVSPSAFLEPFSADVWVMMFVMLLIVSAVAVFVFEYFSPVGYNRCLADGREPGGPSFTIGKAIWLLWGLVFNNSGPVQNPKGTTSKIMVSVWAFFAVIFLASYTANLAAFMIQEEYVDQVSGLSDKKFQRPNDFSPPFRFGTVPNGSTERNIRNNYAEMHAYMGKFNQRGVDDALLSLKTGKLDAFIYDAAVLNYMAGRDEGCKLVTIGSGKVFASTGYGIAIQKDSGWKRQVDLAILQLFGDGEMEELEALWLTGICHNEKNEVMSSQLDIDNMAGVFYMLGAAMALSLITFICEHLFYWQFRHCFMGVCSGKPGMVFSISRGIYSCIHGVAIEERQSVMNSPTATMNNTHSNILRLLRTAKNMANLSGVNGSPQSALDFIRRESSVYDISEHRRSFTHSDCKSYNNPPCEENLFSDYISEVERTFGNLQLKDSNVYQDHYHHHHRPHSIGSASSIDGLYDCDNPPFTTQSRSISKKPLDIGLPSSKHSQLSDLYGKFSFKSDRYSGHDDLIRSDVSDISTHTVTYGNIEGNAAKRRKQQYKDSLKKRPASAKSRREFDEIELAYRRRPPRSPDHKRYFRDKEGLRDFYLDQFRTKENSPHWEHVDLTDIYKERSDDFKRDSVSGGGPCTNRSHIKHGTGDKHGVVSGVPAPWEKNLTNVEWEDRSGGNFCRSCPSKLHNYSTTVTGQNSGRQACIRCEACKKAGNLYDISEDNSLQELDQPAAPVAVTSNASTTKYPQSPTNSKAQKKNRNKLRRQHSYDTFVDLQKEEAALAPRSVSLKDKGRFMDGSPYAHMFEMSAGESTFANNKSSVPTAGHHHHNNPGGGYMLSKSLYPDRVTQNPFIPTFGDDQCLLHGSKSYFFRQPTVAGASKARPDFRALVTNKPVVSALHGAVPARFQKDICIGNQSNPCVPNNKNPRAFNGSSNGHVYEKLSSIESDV

Take `CC12CC3CC(C)(C1)CC(N)(C3)C2` [Memantine, memantine]: the “Fraction charged at physiological pH” value in data set [1] was 99.95%. In addition, the “Effect of memantine on deactivation time constant (τ)” value on GluN1–GluN2B^V618G (setting [5]), at GluN1–GluN2B^WT (setting [5]) and at GluN1–GluN2B^N615I (setting [5]) was “did not affect” throughout. Further, the “δMem, fraction of membrane potential sensed by memantine” value on GluN1–GluN2B^V618G (trapping block model fit) is on record as 0.42 ± 0.03; at GluN1–GluN2B^WT, 0.65 ± 0.026; at GluN1–GluN2B^WT (listed as memantine), 0.65 ± 0.03; on GluN1–GluN2B^N615I (trapping block model fit) it was 0.42 ± 0.11. Further, the “Inhibition of peak EPSC amplitude and charge transfer by memantine” value in data set [2], in data set [3] and in data set [4] was “inhibited to a comparable extent” throughout.
